Results: patent US20260373294A1, “PHARMACEUTICAL COMPOSITIONS COMPRISING A PSYCHEDELIC DRUG AND A DENDRITIC NANOCARRIER” (priority 2023, published 2026)
Entries after “also recorded” stand apart in the source; their conditions may differ. Like-named read-outs stand apart in the source and are kept apart here.

What was measured:
[1] = test system: N-methyl-D-aspartate receptor (NMDAR); conditions: cited from earlier work
[2] = cited from earlier work
[3] = Diffusion cell tests with porcine oral mucosa (Franz cells) (Example 8); assay type: in vitro ADME; conditions: 2.5% DendroSol; 0.025 mg/100 μL LSD
Description: FIG. 3 Diffusion cell tests with psilocin, LSD and MDMA in Franz cells in the absence and presence of carrier. The tests were carried out with porcine oral mucosa as described in Example 8 below. Each carrier formulation was used on four diffusion cells each. In the graphic, mean values are shown.
Diffusion cell tests were carried out with porcine oral mucosa. Porcine mucosa was freshly prepared and kept in physiological buffer at pH 7.2 at temperatures between 2-8 °C for less than 36 h prior the experiment. The prepared oral mucosa thickness was 0.4-0.65 mm. Concentrations were determined by HPLC-UV. Four diffusion cells with a surface area of 0.54 cm^2 and an acceptor volume of 12.7 mL were used in the experiments for each formulation. Drug-carrier solutions wherein the solvent was water were prepared by either dissolving the drug in ethanol in a glass beaker, letting the ethanol evaporate under high vacuum and then dissolving the drug in the buffered nanocarrier solution. Alternatively, the drug was mixed with the carrier in ethanol in final conditions, the resulting mixture was dried under high vacuum in case of psilocin and afterwards re-dissolved in purified HPLC water.
Each carrier formulation was used on four diffusion cells each. In the graphic, the results were averaged.
Acceptor medium was physiological NaCl solution which was phosphate-buffered to pH 7.2. […]

5-HT2A receptor = conditions: cited from earlier work
[4] = taken by mouth; cited from earlier work
[5] = Exemplary stability experiment, visual grading of psilocin samples with carriers or stabilizers (Example 6); assay type: physicochemical; design: key to stability, visually graded, under Vacuum at 25 °C / stability, visually graded, at room temperature exposed to air / stability, visually graded, at 50 °C, exposed to air: 0: dark precipitate visible = not stable; 1: discolored = moderately stabilized; 2: slightly discolored = stabilized; 3: transparent = highly stabilized
Description: Psilocin was mixed with two different batches of CMS carrier (DendroSol®), two different batches of dendritic succinate (hPG-succ, one of which had 25% substitution with succinate, the other one 100%) and two different batches of dendritic succinate functionalized with nalbuphine as anchor molecule (liked via an ester), as well as dendritic succinate deprotonized with NaOH. For comparison, we also mixed psilocin with known stabilizers oxalic acid and ascorbic acid (vitamin C), as well as mixtures of vitamin C with the carriers named above. One sample of pure psilocin solution was kept as a reference.
All samples contained 5 mg/L of psilocin and 2.5 wt % of carrier (for carriers mixed with oxalic acid or vitamin C, the total concentration of additives was 2.5 wt %). In the second part of the experiment, the carrier concentration was varied between 0.6 and 3 wt %.

[6] = cited from earlier work; remark: listed apart in the source
[7] = intravenous administration of psilocybin; US2022370413A1; cited from earlier work

Question: For `CNC1(c2ccccc2Cl)CCCCC1=O` (racemic) [(R,S)-ketamine], which “NMDAR antagonism / interaction” value [1] is on record?
Answer: The value was “antagonist of the NMDAR”.

Question: What about the “effect in treatment-resistant PTSD” value ([2]; patients with treatment-resistant post-traumatic stress disorder) of the same compound?
Answer: Its value is “beneficial effects”.

Question: And the antidepressant effect ([2]; treatment-resistant MDD or BD, single or repeated intravenous infusions, 0.5 mg/kg)?
Answer: The antidepressant effect was “robust antidepressant and antisuicidal effects”.

Question: For `CN[C@@]1(c2ccccc2Cl)CCCCC1=O` [(R)-ketamine], which “antidepressant potency and duration, relative” value ([2]; (R)-ketamine relative to (S)-ketamine) is on record?
Answer: Its value is “more long-lasting; also recorded: greater potency and longer-lasting antidepressive effects”.

Question: For `CN[C@]1(c2ccccc2Cl)CCCCC1=O` [(S)-ketamine], which “NMDAR antagonism / interaction” value [1] is on record?
Answer: The value was “stronger”.

Question: For `CCN(CC)C(=O)[C@@H]1C=C2c3cccc4[nH]cc(c34)C[C@H]2N(C)C1` [LSD], which “effect of carrier on diffusion rate, water vs ethanol as solvent” value [3] is on record?
Answer: Its value is “the effect was greater when water was used as solvent than with use of ethanol as solvent”.

Question: What about the 5-HT2A receptor agonism (5-HT2A receptor; listed as (+) lysergide) of the same compound?
Answer: The 5-HT2A receptor agonism was “partial agonist with a high affinity to this receptor”.

Question: And the 5-HT2A receptor agonism (5-HT2A receptor; listed as lysergide)?
Answer: The 5-HT2A receptor agonism was 5-HT2A receptor agonists.

Question: Which duration of effects [4] does the source give for `CNC(C)Cc1ccc2c(c1)OCO2` (stereo not shown) [MDMA, 3,4-methylenedioxymethamphetamine] here?
Answer: Its duration of effects is 3 to 6 h.

Question: What about the onset of effects [4] of the same compound?
Answer: Its onset of effects is 30 to 45 min.

Question: With `CN(C)CCc1c[nH]c2cccc(O)c12` [Psilocin] as the compound, how does the “stability, visually graded, at 50 °C, exposed to air” value ([5]; 50 °C, exposed to air, all samples contain psilocin (5 mg/L) and 2.5 wt % carrier/additive) read?
Answer: Its value is 0.

Question: What about the “stability of psilocin, conclusion” value ([5]; conclusion in words) of the same compound?
Answer: The value was “could be significantly improved by adding the right carriers”.

Question: And the “effectiveness of carriers for stabilizing psilocin (ranking)” value ([5]; order of effectiveness, lowest first)?
Answer: Its value is “pure psilocin<CMS carrier (DendroSol®)<oxalic acid<dendritic succinate (25%)<dendritic succinate (100%)=functionalized dendritic succinate=dendritic succinate deprotonized with NaOH”.

Question: What about the “stability, visually graded, at room temperature exposed to air” value ([5]; room temperature, exposed to air, all samples contain psilocin (5 mg/L) and 2.5 wt % carrier/additive) of the same compound?
Answer: The value was 0.

Question: What about the “stability, visually graded, under Vacuum at 25 °C” value ([5]; under vacuum at 25 °C, all samples contain psilocin (5 mg/L) and 2.5 wt % carrier/additive) of the same compound?
Answer: The value was 3.

Question: And the 5-HT2A receptor agonism (5-HT2A receptor)?
Answer: The 5-HT2A receptor agonism was 5-HT2A receptor agonists.

Question: And the “stability in biological samples” value ([6]; blood or urine)?
Answer: The value was “unstable and is degraded fast by both non-enzymatic and enzymatic processes”.

Question: What about the “stability in ambient and aqueous environments” value ([6]; exposed to air and aqueous) of the same compound?
Answer: Its value is “poor stability due to photodegradation and oxidation”.

Question: What about the “peak loss over 14 days” value ([6]; psilocin sample protected from light, 14 days) of the same compound?
Answer: The value was 50%.

Question: For `CNC1(c2ccccc2Cl)CCCCC1=O` (stereo not shown) [ketamine], which “NMDAR antagonism / interaction” value [1] is on record?
Answer: The value was “antagonist of the N-methyl-D-aspartate receptor”.

Question: With `COc1cc(CCN)cc(OC)c1OC` [mescaline] as the compound, how does the 5-HT2A receptor agonism (5-HT2A receptor) read?
Answer: The 5-HT2A receptor agonism was 5-HT2A receptor agonists.

Question: With `CN(C)CCc1c[nH]c2cccc(OP(=O)(O)O)c12` [psilocybin] as the compound, how does the “variation of maximum plasma concentrations of psilocin between individuals” value [7] read?
Answer: The value was “can vary over three-fold between individuals”.
